Source: patent US7341867B2, “Human preprotachykinin gene promoter” (University of Medicine & Dentistry of New Jersey, priority 1999, dated 2008)

Legend:
Assay type in all cases: cell-based, human
β-PPT-I mRNA = test: Quantitative RT-PCR in stimulated bone marrow stroma
Experimental: (§1) In a second embodiment of the present invention, bone marrow stroma was stimulated in serum-free α-MEM supplemented with Insulin-transferrin-selenium-A (Life Technologies). Quantitative RT-PCR with total RNA, extracted from bone marrow stroma and construction of standard DNA was performed as described in Singh, D., supra. The end sequences of the standard DNA contained gene-specific sequences that are complementary for the reaction primers. The primers in the standard DNA flank neutral DNA. Total RNA (2 μg) was reverse transcribed and 200 ng cDNA used in PCR with specific oligonucleotide primers for PPT-I, NK-1 or NK-2. Standard DNA, log10 fold dilutions, ranged between 10^−2 to 10^−6 attomole/L. Each unknown sample was assayed with a particular concentration of standard DNA in the same reaction tube. PCR products (10 μl) were separated by electrophoresis on 1.5% agarose containing ethidium bromide and the densities of the DNA bands quantitated with a Fluorimager (Molecular Dynamics, Sunnyvale, Calif.) and then analyzed with ImageQuant software. A standard curve was established for each unknown sample: band densities of unknown/standard DNA vs. Log10 standard DNA concentration was used to determine the concentration of RNA molecules in the unknown samples. The concentration of the unknown sample was selected at the concentration in which the ratio of the unknown and standard were equivalent.
(§2) Transfected bone marrow stroma was stimulated with optimal concentrations of IL-1α (2.5 ng/ml), SCF (8 ng/ml) or 1 nM substance P, SP (Sigma, St Louis, Mo.) and/or 10 nM NK-1-specific antagonist (CP-99,994) in α-MEM with 2% FCS. In other embodiments, bone marrow stroma was stimulated with 5 μg/ml forskolin, FK (Sigma) for 2 and 5 h. SCF was purchased from R&D Systems (Minneapolis, Minn.) and IL-1α was obtained from Hoffman LaRoche, Nutley, N.J. Pfizer, Inc. (Groton, Conn.) provided CP-99,994. Substance P and CP-99,994 were dissolved and stored as described in Ramewshwar et al (1996), supra. Optimal parameters were determined with dose-response and time-course studies.
Confluent bone marrow stroma was stimulated with 25 ng/ml rhIL-1α or 10 ng/ml SCF for 24 h. Poly A RNA was isolated from total RNA by selection (2×) on oligo-dT cellulose (Life Technologies). The cellulose column was washed once with 10 mM Tris, pH 7.0; 0.5 M NaCl; […] and once with 10 mM Tris, pH 7.0; 0.2 M NaCl; […]. Poly A RNA was eluted with 10 mM Tris (pH 7.0) and […]. RNA was precipitated by standard techniques and then resuspended in DEPC-treated water. The purity was verified by the absence of rRNA.

NK-2 mRNA = test: as above; conditions: BM stroma; 8 ng/ml SCF or 2.5 ng/ml IL-1a; 16 h; serum-free α-MEM
Experimental: as §1, §2

NK-1 mRNA = test: as above
Experimental: as §1, §2

[1] = tested on: PPT-I promoter (Upstream/N0); test: Luciferase reporter gene assay, pGL3-Upstream/N0 in transfected bone marrow stroma
Experimental: as §2
pGL3-basic with inserts of different fragments from PPT-I-p1.2 was co-transfected with pβ-gal-Control (0.5 μg each) in 80% confluent bone marrow stroma using SuperFect (Qiagen, Valencia, Calif.). After 48 h cells were scraped in 30 μl 250 mM Tris (pH 8.0) and then lysed by freezing and thawing in a dry ice/ethanol bath. Cell-free lysates (24 μl) were obtained by centrifugation at 15,000 g for 5 min at 4° C. and then diluted with 5× cell culture lysis buffer (Promega). Luciferase and β-gal activities were quantitated with 10 μl of lysates using Luciferase assay system (Promega) and Luminescent β-galactosidase detection kit II (Clontech) respectively. In the experimental model, the ratios of Luciferase/β-gal in cells transfected with vector alone ranged from 0.18 to 0.19 and was normalized to 1. Because cytokines induce the promoter upstream of β-gal, in cytokine-stimulated cells, luciferase activity was presented/mg of total protein the levels normalized with stroma transfected with vector alone. Total protein was determined using standard techniquees well known in the art.
Mutations were performed with a mutagenesis kit (Stratagene, La Jolla, Calif.). The desired mutant sequences (Table 1) were synthesized within 40 nt in the forward and reverse directions and then used in PCR with pGL3 containing wild type Upstream/N0. After PCR amplification, mutation was verified by identification of Apa L1 within CRE-like mutant and the loss of Xho 1 in CRE mutant.

SP-IR = test: ELISA of immunoreactive-SP (SP-IR) in stroma cell extracts
Experimental: Competitive ELISA quantitated SP-IR in supernatants from breast cancer cell cultures that were 80% confluent. Cell-free supernatants were stored in siliconized tubes at −70° C. until ready to be assayed. Streptavidin, […] in distilled water, was added to Immulon 96-well plates (Dynatech Laboratories Inc., Chantilly, Va.). Streptavidin was allowed to dry at 37° C. After this, wells were blocked with 5% nonfat dry milk for 2 hr at room temperature and then washed with PBS containing 0.1% Tween-20 (PBST). Chiron Mimotopes (Emeryville, Calif.) synthesized biotinylated-SP, with spacer arm. Stock solution was diluted in 0.1% (v/v) acetic acid at 5 mg/ml, aliquoted in siliconized tubes and stored at −70° C. Working solution was diluted at 750 ng/ml with PBS containing 0.1% (w/v) BSA and 0.1% (w/v) sodium azide. Biotinylated-SP ([…]) was added to wells and plates incubated for 1 hr at room temperature. Plates were washed (×4) with PBST. Competition by the […] and soluble SP for anti-SP forms the basis for the next step. Equal volume (50 μl) of optimum rabbit anti-SP (1/15,000), and unknown or standard solution were added to wells. Plates were incubated at room temperature for 1 hr. Each unknown was assayed in triplicate as undiluted and three serial dilutions. Bound anti-SP was detected by incubating for 1 hr with optimum (150 ng/ml) AP-goat antirabbit IgG. Color was developed with Sigma 104 phosphatase substrate as described (Rameshwar, P. et al. (1996), Blood 88, 98-106). A standard curve was developed with O.D. (405 nm) versus 12 serial dilutions of standard SP that ranged from 100 to 0.08 ng/ml. […]
In the next set of experiments, we investigated the possibility for an indirect mechanism in the activation of PPT-I promoter. […] Since SCF induces endogenous PPT-I (Table 6), we used ELISA (Singh, D. et al, supra) to quantitate the level of its major translation product, immunoreactive-SP (SP-IR), in stroma cell extracts. […] To address this, we incubated the SCF-stimulated cells with 10 nM of an NK-1-specific antagonist (CP-99,994) and then quantitated luciferase activity. […]

[2] = BM stroma, 8 ng/ml SCF or 2.5 ng/ml IL-1a, 16 h, serum-free α-MEM
[3] = stroma stimulated with SCF, five experiments

Substance: SCF: stem cell factor, cytokine purchased from R&D Systems
- β-PPT-I (molecules/μg total RNA) (β-PPT-I mRNA; BM stroma, 1 nM SP, 8 ng/ml SCF and/or 10 nM CP-99,994, 16 h): 1324 ± 76 molecules/μg total RNA
- β-PPT-I mRNA (β-PPT-I mRNA; [2]): 1336 ± 134 Molecules/μg total RNA
- molecules of β-PPT-I/μg poly A (β-PPT-I mRNA; poly A RNA from stroma stimulated with 25 ng/ml rhIL-1α or 10 ng/ml SCF for 24 h, n=6): 134,340±545 molecules of β-PPT-I/μg poly A
- NK-2 mRNA (NK-2 mRNA): 273 ± 19 Molecules/μg total RNA
- NK-1 mRNA (NK-1 mRNA; [2]): 5253 ± 170 Molecules/μg total RNA
- NK-1 induced (NK-1 mRNA; optimal SCF for 36 h): 5052±50 molecules/μg total RNA
- increase in luciferase activities compared to unstimulated cells ([1]; pGL3-Upstream/N0 wild type, optimal SCF or IL-1a, 10 h): 4 fold
- induction of luciferase in cells transfected with the double mutants ([1]; pGL3-Upstream/N0 with mutant CRE and CRE-like): no significant induction
- SP-IR in stromal extracts (SP-IR; SCF-stimulated, after 36 h, n=5, ±SD): 115 ± 8 pg/mL
- SP-IR at 4 h post-transfection (SP-IR; [3]): 122 ± 14 pg/mL
- SP-IR at time 0 post-transfection (SP-IR; [3]): 110 ± 18 pg/mL
